Experimental data from patent US11000033B2, “Ketone or oxime compound, and herbicide” (NISSAN CHEMICAL CORPORATION, priority 2014, dated 2021).

Tests used:
Assay type in all cases: in vivo
[1] = test system: Monochoria vaginalis; experiment: Test Example 2: herbicidal activity, application during weed generation in submerged conditions (symbol C); settings: Table 23; application herbicide amount 320 g/ha; grade 0-5 by criteria of Test Example 1
In short: (§1)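 Read-out: herbicidal effect on each species rated on a visual scale 3 weeks after treatment. Plants were raised together from seed in flooded alluvial soil (4 cm water) at 25° C. to 30° C. and treated at one to two leaves by water-surface application of diluted emulsion.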

[2] = test system: beet; experiment: Test Example 5: effect on crop by foliage application, plastic box (symbol f); settings: 320 g/ha, 3 weeks after application
In short: (§2)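 Greenhouse culture at 25° C. to 30° C. followed spot-like sowing into sterilized diluvial soil, with seed covered by roughly 1.5 cm of soil.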

[3] = test system: Veronica persica; experiment: Test Example 4: herbicidal effect by soil treatment (symbol R); settings: for R: Veronica persica, herbicidal effect grade: 320 g/ha; for Herbicidal effect grade, R: Veronica persica: application herbicide amount 320 g/ha
In short: (§3)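 Seeds were sown in sterilized diluvial soil, covered with about 1.5 cm of soil, and the soil surface was sprayed with a water-diluted emulsion of the compound at a predetermined rate. Plants grew in a greenhouse at 25° C. to 30° C.; effects were scored visually 3 weeks after application.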

[4] = test system: Scirpus juncoides; experiment: Test Example 2: herbicidal activity, application during weed generation in submerged conditions (symbol B); settings: Table 23; application herbicide amount 320 g/ha; grade 0-5 by criteria of Test Example 1
In short: as §1

[5] = test system: Echinochloa oryzacola Vasing.; experiment: Test Example 1: herbicidal activity, application before weed generation in submerged conditions (symbol A); settings: application herbicide amount 320 g/ha
In short: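 Steps: alluvial soil flooded to 4 cm; weed seeds sown together; rice seedlings (2.5 leaf) transplanted; diluted emulsion applied to water surface the same day as sowing; plants grown at 25–30 °C in greenhouse; herbicidal effect rated on a 0–5 scale at 3 weeks.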

[6] = test system: Alopecurus myosuroides; experiment: Test Example 5: herbicidal effect by foliage application, plastic box (symbol J); settings: 320 g/ha, 3 weeks after application
In short: (§4)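 Greenhouse foliar test: seedlings at 14 days, grown 25° C. to 30° C. in sterilized diluvial soil; compound applied as an aqueous dilution of an emulsion; response read 3 weeks after spraying.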

[7] = test system: Digitaria ciliaris; experiment: Test Example 5: herbicidal effect by foliage application, plastic box (symbol F); settings: 320 g/ha, 3 weeks after application
In short: as §4

[8] = test system: beet; experiment: Test Example 4: effect on crop by soil treatment (symbol f); settings: for f: beet, effect grade on crop: 320 g/ha; for Effect on crop grade, f: beet: application herbicide amount 320 g/ha
In short: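 Plants are raised in a greenhouse (25° C. to 30° C.) from spot-sown seed, which sits under about 1.5 cm of sterilized diluvial soil in a box shared with weed species.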

[9] = test system: Leptochloa chinensis; experiment: Test Example 3: herbicidal effect by foliage application, Wagner pot (symbol D); settings: application herbicide amount 320 g/ha; for D (Leptochloa chinensis) herbicidal effect grade: Table 24
In short: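 Scoring took place 3 weeks after application, using fixed criteria. Plants had been raised from seed for 14 days at 25 to 30 °C in submerged alluvial soil before a diluted emulsion of the test compound was sprayed uniformly on the leaves.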

[10] = test system: Avena fatua; experiment: Test Example 5: herbicidal effect by foliage application, plastic box (symbol I); settings: 320 g/ha, 3 weeks after application
In short: as §4

[11] = test system: rapeseed; experiment: Test Example 5: effect on crop by foliage application, plastic box (symbol g); settings: 320 g/ha, 3 weeks after application
In short: as §2

[12] = test system: Setaria viridis; experiment: Test Example 4: herbicidal effect by soil treatment (symbol G); settings: for G: Setaria viridis, herbicidal effect grade: 320 g/ha; for Herbicidal effect grade, G: Setaria viridis: application herbicide amount 320 g/ha
In short: as §3

Structure (SMILES) | Herbicidal effect grade, C: Monochoria vaginalis [1] | f: beet, effect on crop (criteria 0-5) [2] | R: Veronica persica, herbicidal effect grade [3] | Herbicidal effect grade, B: Scirpus juncoides [4] | Herbicidal effect grade, A: Echinochloa oryzacola Vasing. [5] | J: Alopecurus myosuroides, herbicidal effect (criteria 0-5) [6] | F: Digitaria ciliaris, herbicidal effect (criteria 0-5) [7] | f: beet, effect grade on crop [8] | herbicidal effect on D (Leptochloa chinensis), grade 0-5 [9] | I: Avena fatua, herbicidal effect (criteria 0-5) [10] | g: rapeseed, effect on crop (criteria 0-5) [11] | G: Setaria viridis, herbicidal effect grade [12] | f: beet, effect on crop grade [2] | Herbicidal effect grade, R: Veronica persica [3] | J: Alopecurus myosuroides, herbicidal effect grade [6] | F: Digitaria ciliaris, herbicidal effect grade [7] | Effect on crop grade, f: beet [8] | D (Leptochloa chinensis) herbicidal effect grade [9] | I: Avena fatua, herbicidal effect grade [10] | g: rapeseed, effect on crop grade [11] | other results
CON=C(C)CC1CC(OC(=O)COCC(F)(F)F)=C(c2c(C)cc(C)cc2C)C1=O (stereo not drawn) [1-092] | 0 (Herbicidal ratio of 5% or lower (almost no effect)) | 0 (Herbicidal ratio of 5% or lower (almost no effect)) | 0 (Herbicidal ratio of 5% or lower (almost no effect)) | 4 (Herbicidal ratio of 70% or higher and lower than 90%) | 5 (Herbicidal ratio of 90% or more (almost completely withered)) | 4 (Herbicidal ratio of 70% or higher and lower than 90%) | 5 (Herbicidal ratio of 90% or more (almost completely withered)) | 0 (Herbicidal ratio of 5% or lower (almost no effect)) | 5 (Herbicidal ratio of 90% or more (almost completely withered)) | 2 (Herbicidal ratio of 20% or higher and lower than 40%) | 4 (Herbicidal ratio of 70% or higher and lower than 90%) | 5 (Herbicidal ratio of 90% or more (almost completely withered)) | – | – | – | – | – | – | – | – | –
COCC(=O)OC1=C(c2c(C)cc(C)cc2C)C(=O)C(CC(C)=NOC)C1 (stereo not drawn) [1-093] | 3 (Herbicidal ratio of 40% or higher and lower than 70%) | 0 (Herbicidal ratio of 5% or lower (almost no effect)) | 0 (Herbicidal ratio of 5% or lower (almost no effect)) | 5 (Herbicidal ratio of 90% or more (almost completely withered)) | 5 (Herbicidal ratio of 90% or more (almost completely withered)) | 5 (Herbicidal ratio of 90% or more (almost completely withered)) | 5 (Herbicidal ratio of 90% or more (almost completely withered)) | 0 (Herbicidal ratio of 5% or lower (almost no effect)) | 5 (Herbicidal ratio of 90% or more (almost completely withered)) | 5 (Herbicidal ratio of 90% or more (almost completely withered)) | 4 (Herbicidal ratio of 70% or higher and lower than 90%) | 5 (Herbicidal ratio of 90% or more (almost completely withered)) | – | – | – | – | – | – | – | – | –
CON=C(C)CC1CC(OC(=O)COCc2ccccc2)=C(c2c(C)cc(C)cc2C)C1=O (stereo not drawn) [1-094] | 4 (Herbicidal ratio of 70% or higher and lower than 90%) | 0 (Herbicidal ratio of 5% or lower (almost no effect)) | 0 (Herbicidal ratio of 5% or lower (almost no effect)) | 5 (Herbicidal ratio of 90% or more (almost completely withered)) | 5 (Herbicidal ratio of 90% or more (almost completely withered)) | 5 (Herbicidal ratio of 90% or more (almost completely withered)) | 5 (Herbicidal ratio of 90% or more (almost completely withered)) | 0 (Herbicidal ratio of 5% or lower (almost no effect)) | 5 (Herbicidal ratio of 90% or more (almost completely withered)) | 5 (Herbicidal ratio of 90% or more (almost completely withered)) | 4 (Herbicidal ratio of 70% or higher and lower than 90%) | 5 (Herbicidal ratio of 90% or more (almost completely withered)) | – | – | – | – | – | – | – | – | –
CC#CC(=O)OC1=C(c2c(C)cc(C)cc2C)C(=O)C(CC(C)=NOC)C1 (stereo not drawn) [1-095] | 1 (Herbicidal ratio of 5% or higher and lower than 20%) | 0 (Herbicidal ratio of 5% or lower (almost no effect)) | 1 (Herbicidal ratio of 5% or higher and lower than 20%) | 4 (Herbicidal ratio of 70% or higher and lower than 90%) | 5 (Herbicidal ratio of 90% or more (almost completely withered)) | 5 (Herbicidal ratio of 90% or more (almost completely withered)) | 5 (Herbicidal ratio of 90% or more (almost completely withered)) | 0 (Herbicidal ratio of 5% or lower (almost no effect)) | 5 (Herbicidal ratio of 90% or more (almost completely withered)) | 5 (Herbicidal ratio of 90% or more (almost completely withered)) | 4 (Herbicidal ratio of 70% or higher and lower than 90%) | 5 (Herbicidal ratio of 90% or more (almost completely withered)) | – | – | – | – | – | – | – | – | –
CON=C(CC1CC(O)=C(c2c(C)cc(Br)cc2C)C1=O)C(C)C (stereo not drawn) [9-001] | 0 (Herbicidal ratio of 5% or lower (almost no effect)) | – | – | 0 (Herbicidal ratio of 5% or lower (almost no effect)) | 4 (Herbicidal ratio of 70% or higher and lower than 90%) | – | – | – | – | – | – | – | 0 (Herbicidal ratio of 5% or lower (almost no effect)) | 0 (Herbicidal ratio of 5% or lower (almost no effect)) | 3 (Herbicidal ratio of 40% or higher and lower than 70%) | 4 (Herbicidal ratio of 70% or higher and lower than 90%) | 0 (Herbicidal ratio of 5% or lower (almost no effect)) | 4 (Herbicidal ratio of 70% or higher and lower than 90%) | 5 (Herbicidal ratio of 90% or more (almost completely withered)) | 2 (Herbicidal ratio of 20% or higher and lower than 40%) | Herbicidal effect grade, G: Setaria viridis [12]: 4 (Herbicidal ratio of 70% or higher and lower than 90%)
CON=C(CC1CC(O)=C(c2c(C)cc(Br)cc2C)C1=O)C1CC1 (stereo not drawn) [9-002] | 0 (Herbicidal ratio of 5% or lower (almost no effect)) | – | – | 0 (Herbicidal ratio of 5% or lower (almost no effect)) | 5 (Herbicidal ratio of 90% or more (almost completely withered)) | – | – | – | – | – | – | – | 0 (Herbicidal ratio of 5% or lower (almost no effect)) | 0 (Herbicidal ratio of 5% or lower (almost no effect)) | 5 (Herbicidal ratio of 90% or more (almost completely withered)) | 5 (Herbicidal ratio of 90% or more (almost completely withered)) | 0 (Herbicidal ratio of 5% or lower (almost no effect)) | 5 (Herbicidal ratio of 90% or more (almost completely withered)) | 5 (Herbicidal ratio of 90% or more (almost completely withered)) | 4 (Herbicidal ratio of 70% or higher and lower than 90%) | Herbicidal effect grade, G: Setaria viridis [12]: 5 (Herbicidal ratio of 90% or more (almost completely withered))
CON=C(CC1CC(O)=C(c2c(C)cc(-n3cc(Cl)cn3)cc2C)C1=O)C(C)C (stereo not drawn) [9-004] | 0 (Herbicidal ratio of 5% or lower (almost no effect)) | – | – | 2 (Herbicidal ratio of 20% or higher and lower than 40%) | 5 (Herbicidal ratio of 90% or more (almost completely withered)) | – | – | – | – | – | – | – | 0 (Herbicidal ratio of 5% or lower (almost no effect)) | 0 (Herbicidal ratio of 5% or lower (almost no effect)) | 5 (Herbicidal ratio of 90% or more (almost completely withered)) | 5 (Herbicidal ratio of 90% or more (almost completely withered)) | 0 (Herbicidal ratio of 5% or lower (almost no effect)) | 5 (Herbicidal ratio of 90% or more (almost completely withered)) | 5 (Herbicidal ratio of 90% or more (almost completely withered)) | 3 (Herbicidal ratio of 40% or higher and lower than 70%) | Herbicidal effect grade, G: Setaria viridis [12]: 5 (Herbicidal ratio of 90% or more (almost completely withered))
